{"source": "patent US7781423B2", "about": "“Compounds to promote regeneration of bone marrow” (priority 2007, dated 2010)", "key": {"[1]": {"tested_on": "lethally irradiated mice that received bone marrow transplantation", "assay": "Blood profile after bone marrow transplantation following lethal irradiation", "assay_type": "in vivo, C57B1 mice", "conditions": "for Platelets / RBC / WBC: CCompound1 4.5 mg per kg i.p. daily, day -3 to day +3", "experimental": "Twelve week old female C57B1 mice were used for the experiments. Each drug was administered intraperitoneally once a day for 5 consecutive days. In the second, third, fourth and fifth groups, mice were administered 120 mg/kg of cyclophosphamide (CP). In a third group, mice were also administered 4.5 mg/kg of CCompound1. In a fourth group, mice were also administered 4.5 mg/kg of CCompound3. In a fifth group, mice were also administered 2.0 mg/kg of CCompound26. In the first group, mice received no treatment. Each group included 5 animals. After 3 hours of the last treatments (on day 5), blood samples were collected from the ocular venous plexus of ether-anesthetized mice by retro-orbital venipuncture in heparanized tubes. Complete cell counts (RBC, red blood cell; WBC, white blood cell; PTL, platelet) were determined with a Sysmex F-800 hematology analyzer (To a Medical Electronics Co. LTD, Kobe, Japan). All data shown in Table 2 are the average of 5 independent determinations.\nIn this experiment the goal was to determine if CCompound1 can enhance expansion of transplanted bone marrow cells infused after applying a lethal dose of whole body irradiation (which reduces the number of bone marrow cells by more than 90%). C57B1 female mice (10-14 weeks old) were subjected to 900 cGy whole body irradiation from a ^137Cesium source which was followed within 6 hours by infusion of one million donor nucleated bone marrow cells by tail vein injection. Starting 3 days before irradiation, animals received daily 4.5 mg per kg of CCompound1 via intraperitoneal injection; this treatment also was provided on day 0 and once daily for the subsequent 3 days after irradiation. In another group, mice were injected only with physiological saline.\nBone marrow cells were collected on day 0 from non-irradiated animals as well as on days 6, 14, 28 and 42 after irradiation and bone marrow transplantation. Nucleated bone marrow cells were quantified and CFU-GM assay was performed as described in Example 3 while blood profiling was performed as described in Example 1. For each group, on the indicated days bone marrow and blood samples were collected from 3 animals. Each value presented in Table 5 and Table 6 represents the mean±st. dev. of 3 samples (derived from 3 animals)."}, "healthy mice": {"tested_on": "healthy mice", "assay": "Toxicity in healthy mice", "assay_type": "in vivo", "conditions": "for well tolerated maximal dose: mice weighing about 25 g", "experimental": "Accordingly, a well tolerated maximal dose for CCompound1 or CCompound3 in mice (weighing about 25 g) is […] which corresponds to a dose of 4.6 mg/kg. Therapeutically effective concentrations of CC compounds in humans will exert significant promoting effects on bone marrow regeneration without causing toxicity in other normal healthy tissues."}, "MTT cell viability assay": {"assay": "MTT cell viability assay", "assay_type": "cell-based", "conditions": "human, read-out: decrease of viability", "experimental": "The NIH 3T3 (normal) mouse fibroblast, A431 human epidermoid adenocarcinoma, and MCF-7 human breast cancer cells were cultured in DMEM medium containing 10% FBS. The MEL-28 human melanoma cells were cultured in MEM medium containing 10% FBS. The HT-29 human colon adenocarcinoma cells were cultured in McCoy's 5a medium containing 10% FBS. The A549 human lung carcinoma cells were maintained in Ham's F12K medium containing 10% FBS. T47D cells were cultured in 12-well plates in RPMI 1640 medium supplemented with 0.2 IU bovine insulin and 10% FBS. CaOV-3 human ovarian cancer cells were cultured in DMEM containing 10% FBS. ZR-75-1 human estrogen receptor-positive breast cancer cells were maintained in RPMI 1640 medium supplemented with 10% FBS. HTB-157 human fetal fibroblasts, MEL-24 human malignant melanoma cells, Hep G2 human hepatoblastoma cells, and CaCO-2 human colon adenocarcinoma cells were maintained in Eagles's MEM containing 10% FBS. MB-231 human estrogen receptor-negative breast cancer cells were maintained in Leibovitz's L-15 medium supplemented with 10% FBS.\nIn the actual experiments, cells were seeded into 96-well plates and cultivated up to either ˜70-90% confluency (survival experiments) or 20-25% confluency (proliferation experiments). Then the medium was changed for serum-free medium (survival experiment) or 2% serum-containing medium (proliferation experiment). The incubation continued for 72 hours followed by the MTT assay to determine cell viability. This calorimetric assay is based on the ability of living cells, but not dead cells, to reduce 3-(4,5-dimethyl thiazol-2-yl)-2,5-diphenyltetrazolium bromide. Carmichael, J, De Graff, W. G., Gazdar, A. F., Minna, J. D. and Mitchell, J. B., “Evaluation of tetrazolium-based semiautomated calorimetric assay: Assessment of chemosensitivity testing,” Cancer Res., 47, 936-942 (1987)."}, "MXT mammary tumor": {"tested_on": "MXT mammary tumor", "assay_type": "in vivo", "conditions": "MXT tumor-bearing, CP-treated mice, by day 22", "experimental": "This experiment was designed to determine whether in a tumor model CC compounds could prevent cyclophosphamide-induced loss of body weight resulting from the depression of blood marrow function. Specified pathogen free (SPF) hygienic category colonies of first generation hybrid BDF1 (C57B1 female×DBA/2 male) adult female mice, weighing 23-24 g, were used. The animals were kept in macrolon cages at 22-24° C. (45-55% humidity), with a lighting regimen of 12/12 h light/dark. […] The animals used in these studies were cared for according to the “Guiding Principles for the Care and Use of Animals” based upon the Helsinki declaration.\nMXT mammary tumor pieces (containing about 10^6 tumor cells) were implanted subcutaneously to develop the tumors. After six days when the tumor-bearing mice were first treated, the sizes of the tumors were in the 0.26-0.30 cm^3 range. All compounds used were dissolved in 0.9% sodium chloride and applied subcutaneously (CC compounds) or intraperitoneally (CP) in 50 μl volume. Tumor volume was determined by using calipers in three dimensions; this technique is well known to one having ordinary skill in the art. Tumor volume was calculated according to the generally accepted formula: V=a^2×b×π/6, where “a” and “b” mean the shortest and longest diameter, respectively, of the measured tumor.\nIn the first group, animals received no treatment. In the second group, mice were administered 120-mg/kg of CP on day 6 followed by seven consecutive daily treatments with the same dose. In the third group, each treatment with CP was associated with administration of 4.5-mg/kg of CCompound1. In the fourth group, each treatment with CP was associated with administration of 4.5-mg/kg of CCompound3. In the fifth group, each treatment with CP was associated with administration of 2.0-mg/kg of CCompound26. Each group included 7 mice. All data represent the average of 7 determinations (one determination with each mouse in the group)."}, "[2]": {"conditions": "after bone marrow transplantation"}, "[3]": {"conditions": "day 6 after 900 cGy irradiation and bone marrow transplantation"}, "[4]": {"conditions": "day 14 after 900 cGy irradiation and bone marrow transplantation"}, "[5]": {"conditions": "day 28 after 900 cGy irradiation and bone marrow transplantation"}, "[6]": {"conditions": "day 42 after 900 cGy irradiation and bone marrow transplantation"}, "[7]": {"conditions": "single 450 μmole (about 4.6 mg/kg) or daily 400 μmole for 5 consecutive days"}}, "note": "Read-outs that look alike come from different tables or passages of the source."}
{"smiles": "Cc1c(OCC(O)C[N+](C)(C)C)cc2c(=O)c3ccccc3sc2c1C.[Cl-]", "note": "(stereo not drawn) [CCcompound1, [3-(3,4-Dimethyl-9-oxo-9H-thioxanthen-2-yloxy)-2-hydroxypropyl]trimethyl-ammonium chloride]", "values": [{"measurement": "time to recover platelet count similar to about 100,000 per 1 μl from transplanted bone marrow stem cells", "setting": "[1]; [2]", "value": "less than 6 days"}, {"measurement": "time to recover white blood cell count similar to 2,500 per 1 μl from transplanted bone marrow stem cells", "setting": "[1]; [2]", "value": "9 to 11", "unit": "days"}, {"measurement": "time to about 50% recovery of white blood cells", "setting": "[1]; after lethal irradiation and bone marrow transplantation", "value": "about 14 days"}, {"measurement": "Platelets", "setting": "[1]; [3]", "value": "243 ± 19 ×10^3/mm^3"}, {"measurement": "RBC", "setting": "[1]; [3]", "value": "4.8 ± 1.2 ×10^6/mm^3"}, {"measurement": "WBC", "setting": "[1]; [3]", "value": "1.6 ± 0.3 ×10^3/mm^3"}, {"measurement": "Platelets", "setting": "[1]; [4]", "value": "438 ± 112 ×10^3/mm^3"}, {"measurement": "RBC", "setting": "[1]; [4]", "value": "9.1 ± 1.1 ×10^6/mm^3"}, {"measurement": "WBC", "setting": "[1]; [4]", "value": "3.3 ± 0.4 ×10^3/mm^3"}, {"measurement": "Platelets", "setting": "[1]; [5]", "value": "716 ± 138 ×10^3/mm^3"}, {"measurement": "RBC", "setting": "[1]; [5]", "value": "10.9 ± 1.3 ×10^6/mm^3"}, {"measurement": "WBC", "setting": "[1]; [5]", "value": "5.2 ± 0.8 ×10^3/mm^3"}, {"measurement": "Platelets", "setting": "[1]; [6]", "value": "776 ± 112 ×10^3/mm^3"}, {"measurement": "RBC", "setting": "[1]; [6]", "value": "11.0 ± 0.7 ×10^6/mm^3"}, {"measurement": "WBC", "setting": "[1]; [6]", "value": "6.6 ± 0.4 ×10^3/mm^3"}, {"measurement": "well tolerated maximal dose", "setting": "healthy mice", "value": 450, "unit": "μmole/animal"}, {"measurement": "well tolerated maximal dose", "setting": "healthy mice; corresponds to 450 μmole/animal", "value": 4.6, "unit": "mg/kg"}, {"measurement": "change in the composition of various blood constituents", "setting": "healthy mice; [7]", "value": "did not cause any significant change"}, {"measurement": "pathological alterations in the liver, brain, kidney, heart, spleen, intestine, and lung", "setting": "healthy mice; [7]", "value": "did not induce significant pathological alterations"}, {"measurement": "cytotoxicity at 72 h, 50 μM", "setting": "MTT cell viability assay; CaOV-3 ovarian cancer cells", "value": "20 to 40", "unit": "%"}, {"measurement": "cytotoxicity at 72 h, 50 μM", "setting": "MTT cell viability assay; Hep G2 hepatoblastoma cells", "value": "20 to 40", "unit": "%"}, {"measurement": "cytotoxicity at 72 h, 50 μM", "setting": "MTT cell viability assay; MEL-28 melanoma cells", "value": "20 to 40", "unit": "%"}, {"measurement": "cytotoxicity at 72 h, 50 μM", "setting": "MTT cell viability assay; ZR-75-1 estrogen receptor-positive breast cancer cells", "value": "20 to 40", "unit": "%"}, {"measurement": "effect on body weight", "setting": "MXT mammary tumor", "value": "body weight gain"}]}
